According to publication PMC4972829, “Olfactory Receptors Modulate Physiological Processes in Human Airway Smooth Muscle Cells” (Frontiers in Physiology, 2016):

What was measured:
OR1D2 = target: T1, OR1D2 (Homo sapiens, UniProt P34982); test: fura-2 calcium imaging in native human airway smooth muscle cells; blocked by OR1D2 antagonist undecanal; cAMP assay; assay type: cell-based
T1 sequence (P34982 1-312): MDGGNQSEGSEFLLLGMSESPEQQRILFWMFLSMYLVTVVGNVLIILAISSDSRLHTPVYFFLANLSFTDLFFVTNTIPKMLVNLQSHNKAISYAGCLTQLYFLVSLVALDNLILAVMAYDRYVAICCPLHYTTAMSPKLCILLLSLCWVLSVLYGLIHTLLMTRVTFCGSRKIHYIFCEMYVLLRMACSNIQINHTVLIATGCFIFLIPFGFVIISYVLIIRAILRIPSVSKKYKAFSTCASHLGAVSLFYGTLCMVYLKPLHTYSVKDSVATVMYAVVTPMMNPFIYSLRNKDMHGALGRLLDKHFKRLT

OR2AG1 = target: T2, OR2AG1 (Homo sapiens, UniProt Q9H205); test: fura-2 calcium imaging in native human airway smooth muscle cells; cAMP assay (text prints EC50 […], figure legend […]); assay type: cell-based
T2 sequence (Q9H205 1-316): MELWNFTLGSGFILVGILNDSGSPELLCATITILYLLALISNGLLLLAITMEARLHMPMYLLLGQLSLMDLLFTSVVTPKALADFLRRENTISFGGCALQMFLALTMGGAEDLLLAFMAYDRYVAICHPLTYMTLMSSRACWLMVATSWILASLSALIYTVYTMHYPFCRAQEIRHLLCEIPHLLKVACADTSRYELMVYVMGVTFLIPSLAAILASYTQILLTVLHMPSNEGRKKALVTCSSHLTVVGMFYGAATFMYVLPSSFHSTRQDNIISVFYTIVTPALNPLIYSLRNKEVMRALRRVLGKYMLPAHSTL

Row | SMILES | EC50 (OR1D2) | EC50 (OR2AG1)
1 | CC(C)(C)c1ccc(CCC=O)cc1 [bourgeonal] | 504 nM | –
2 | CCCCCOC(=O)CCC [amyl butyrate] | – | 253 µM
